Read-outs that look alike come from different tables or passages of the source.
Assays:
[1] = target: GDP-bound NRAS wild-type protein (Homo sapiens, UniProt P01111); experiment: Binding to NRAS by surface plasmon resonance (SPR), KD and KD ratio to KRAS
Method in brief: (§1)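 Each cycle, GDP-bound biotin-Avi RAS was captured (~100–300 RU), compound concentrations were injected low to high for 75 s each at 100 µL/min, then the chip was regenerated. Buffer: HBS pH 7.4, 10 mM MgCl2, 10 µM GDP, 1 mM DTT, 4% DMSO; 30°C. KD from a 1:1 binding model.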

[2] = target: HRAS wild-type protein (Homo sapiens, UniProt P01112); experiment: Binding to HRAS by surface plasmon resonance (SPR), KD and KD ratio to KRAS
Method in brief: as §1

[3] = target: GDP-bound KRAS wild-type protein (Homo sapiens, UniProt P01116); experiment: Binding to KRAS by surface plasmon resonance (SPR), dissociation constant KD
Method in brief: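 Captured GDP-RAS (~100–300 RU) was exposed to increasing compound concentrations, 75 s per step, in running buffer with 10 µM GDP, 10 mM MgCl2 and 4% DMSO at pH 7.4.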

[4] = system: human lung cancer strain NCI-H441; experiment: NCI-H441 cell proliferation inhibitory activity (CellTiter-Glo, 4 days); format: cell-based; settings: read-out: NCl-H441 IC50
Method in brief: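 Signal came from […] measured per well once the reagent was added. Beforehand, cells were cultured at 37°C and 5% carbon dioxide on a compound series serially diluted in dimethyl sulfoxide.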

[5] = ratio of KD with respect to GDP-bound NRAS wild-type protein to KD with respect to KRAS
[6] = ratio of KD with respect to HRAS wild-type protein to KD with respect to KRAS
[7] = Single Cycle Kinetics, 1:1 binding model
[8] = 50% proliferation inhibitory concentration, four days
[9] = ratio of KD for GDP-bound NRAS wild-type protein to KD for KRAS
[10] = ratio of KD for HRAS wild-type protein to KD for KRAS

Sequence of HRAS wild-type protein (P01112 whole entry): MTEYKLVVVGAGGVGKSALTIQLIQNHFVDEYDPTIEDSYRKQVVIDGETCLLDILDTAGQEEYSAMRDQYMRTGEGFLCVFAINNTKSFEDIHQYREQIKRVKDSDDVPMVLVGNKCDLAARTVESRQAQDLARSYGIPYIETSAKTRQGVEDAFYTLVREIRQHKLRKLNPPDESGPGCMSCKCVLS
Sequence of GDP-bound NRAS wild-type protein (P01111 whole entry): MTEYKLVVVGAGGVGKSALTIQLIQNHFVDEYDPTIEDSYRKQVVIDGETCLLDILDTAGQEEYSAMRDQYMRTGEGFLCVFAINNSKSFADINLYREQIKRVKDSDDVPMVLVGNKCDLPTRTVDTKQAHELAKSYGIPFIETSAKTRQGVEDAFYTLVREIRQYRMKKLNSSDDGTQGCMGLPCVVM
Sequence of GDP-bound KRAS wild-type protein (P01116 1-188 isoform P01116-2): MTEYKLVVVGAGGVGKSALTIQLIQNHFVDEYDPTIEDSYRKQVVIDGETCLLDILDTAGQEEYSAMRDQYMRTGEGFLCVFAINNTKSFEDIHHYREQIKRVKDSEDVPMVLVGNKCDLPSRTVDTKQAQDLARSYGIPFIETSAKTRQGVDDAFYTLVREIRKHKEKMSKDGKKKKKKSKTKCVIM

Kd [3, 7]	IC50 [4, 8]	Kd ([3]; 1:1 binding model)	IC50 ([4]; NCI-H441 cells, 4 days)	Kd ([3]; Single Cycle Kinetics)	SMILES	NRAS /KRAS [1, 5]	HRAS /KRAS [2, 6]	NRAS /KRAS [1, 9]	HRAS /KRAS [2, 10]
0.16 nM	91.9 nM				CCO[C@@H]1C[C@H]2C(=O)NC3(CCC3)C(=O)N(C)[C@@H](C3CCCC3)C(=O)N(C)[C@H](C(=O)N3CCOCC3)CC(=O)N(C)[C@@H](Cc3ccsc3)C(=O)N[C@@H]([C@@H](C)CC)C(=O)N(C)CC(=O)N(C)[C@H]3CCCCCN(C3=O)[C@@H](Cc3ccc(F)cc3)C(=O)N(C)CC(=O)N[C@@H](CCc3cc(F)c(C(F)(F)F)c(F)c3)C(=O)N2C1 [PP1184]	B (a compound having 3 or more and less than 10 is denoted as B)	B (a compound having 3 or more and less than 10 is denoted as B)		
		0.23 nM	51.7 nM		CCCO[C@H](C)[C@@H]1NC(=O)[C@H](COCC)N(C)C(=O)C[C@@H](C(=O)N(C)CC)N(C)C(=O)[C@H](C2CCCC2)N(C)C(=O)C2(CC(C)(C)C2)NC(=O)[C@@H]2C[C@H](C)CN2C(=O)[C@H](CCc2ccc(C(F)(F)F)c(OC)c2)NC(=O)CN(C)C(=O)[C@H](Cc2ccc(C)cc2)N2CC/C=C\C[C@@H](C2=O)N(C)C(=O)CN(C)C1=O [PP2425]			AA (a compound having 20 or more is denoted as AA)	A (a compound having 10 or more and less than 20 is denoted as A)
		1.9 nM	147 nM		CCC(CC)[C@H]1C(=O)N(C)[C@H](C(=O)N(C)C)CC(=O)N(C)[C@@H](COC)C(=O)N[C@@H]([C@@H](C)CC)C(=O)N2CCC[C@H]2C(=O)N(C)[C@H]2C/C=C\CCN(C2=O)[C@@H](Cc2ccc(C(F)(F)F)cc2)C(=O)N(C)CC(=O)N[C@@H](CCc2ccc(Cl)c(Cl)c2)C(=O)N2C[C@H](OC3CCCC3)C[C@H]2C(=O)NC2(CC(C)(C)C2)C(=O)N1C [PP2651]			AA (a compound having 20 or more is denoted as AA)	A (a compound having 10 or more and less than 20 is denoted as A)
		0.98 nM	66 nM		CCCOC[C@H]1C(=O)N[C@@H]([C@@H](C)CC)C(=O)N(C)CC(=O)N(C)[C@H]2C/C=C\CCN(C2=O)[C@@H](CC2CCC(F)(F)CC2)C(=O)N(C)CC(=O)N[C@@H](CCc2ccc(C(F)(F)F)c(OC)c2)C(=O)N2C[C@H](OCC)C[C@H]2C(=O)NC2(CC(C)(C)C2)C(=O)N(C)[C@@H](C(CC)CC)C(=O)N(C)[C@H](C(=O)N(C)C)CC(=O)N1C [PP2464]			A (a compound having 10 or more and less than 20 is denoted as A)	A (a compound having 10 or more and less than 20 is denoted as A)
			57.7 nM	0.71 nM	CCC[C@H]1C(=O)N[C@@H](C2CCCC2)C(=O)N(C)CC(=O)N(C)[C@H]2C/C=C\CCN(C2=O)[C@@H](Cc2ccc(C)cc2)C(=O)N(C)CC(=O)N[C@@H](CCc2ccc(C(F)(F)F)c(Cl)c2)C(=O)N2CC3(CC3)C[C@H]2C(=O)NC2(CCC2)C(=O)N(C)[C@@H](C(CC)CC)C(=O)N(C)[C@H](C(=O)N(C)C)CC(=O)N1C [PP3432]			AA (a compound having 20 or more is denoted as AA)	A (a compound having 10 or more and less than 20 is denoted as A)
			6.2 nM	0.083 nM	CCC[C@H]1C(=O)N[C@@H](C2CCCC2)C(=O)N(C)CC(=O)N(C)[C@H]2C/C=C\CCN(C2=O)[C@@H](Cc2ccc(C(F)F)cc2)C(=O)N(C)CC(=O)N[C@@H](CCc2cc(F)c(C(F)(F)F)c(OC)c2)C(=O)N2C[C@H](OC(C)C)C[C@H]2C(=O)N(C)C2(CCC2)C(=O)N(C)[C@@H](C(CC)CC)C(=O)N(C)[C@H](C(=O)N(C)C)CC(=O)N1C [PP3499]			A (a compound having 10 or more and less than 20 is denoted as A)	B (a compound having 3 or more and less than 10 is denoted as B)
0.69 nM	118 nM				CCO[C@@H]1C[C@H]2C(=O)NC3(CCC3)C(=O)N(C)[C@@H](C3CCCC3)C(=O)N(C)[C@H](C(=O)N(C)C)CC(=O)N(C)[C@@H](Cc3ccccc3C#N)C(=O)N[C@@H]([C@@H](C)CC)C(=O)N(C)CC(=O)N(C)[C@H]3CCCCCN(C3=O)[C@@H](Cc3ccc(C(F)(F)F)cc3)C(=O)N(C)CC(=O)N[C@@H](CCc3cc(F)c(C(F)(F)F)c(F)c3)C(=O)N2C1 [PP1171]	B (a compound having 3 or more and less than 10 is denoted as B)	B (a compound having 3 or more and less than 10 is denoted as B)		
0.1 nM	3.7 nM				CCO[C@@H]1C[C@H]2C(=O)NC3(CCCC3)C(=O)N(C)[C@@H](C3CCCC3)C(=O)N(C)[C@H](C(=O)N3CCOCC3)CC(=O)N(C)[C@@H](CC)C(=O)N[C@@H]([C@@H](C)CC)C(=O)N(C)CC(=O)N(C)[C@H]3C[C@@H](C)[C@@H](C)CN(C3=O)[C@@H](Cc3ccc(C(F)(F)F)cc3)C(=O)N(C)CC(=O)N[C@@H](CCc3cc(F)c(C(F)(F)F)c(F)c3)C(=O)N2C1 [PP1353]	A (a compound having 10 or more and less than 20 is denoted as A)	B (a compound having 3 or more and less than 10 is denoted as B)		
			29.8 nM	0.7 nM	CCC[C@H]1C(=O)N[C@@H](C2CCCC2)C(=O)N(C)CC(=O)N(C)[C@H]2C/C=C\CCN(C2=O)[C@@H](Cc2ccc(C)cc2)C(=O)N(C)CC(=O)N[C@@H](CCc2ccc(C(F)(F)F)c(OC)c2)C(=O)N2CC3(CC3)C[C@H]2C(=O)NC2(CCC2)C(=O)N(C)[C@@H](C(CC)CC)C(=O)N(C)[C@H](C(=O)N(C)C)CC(=O)N1C [PP3430]			AA (a compound having 20 or more is denoted as AA)	A (a compound having 10 or more and less than 20 is denoted as A)
			89.4 nM	4.2 nM	CCCOC[C@H]1C(=O)N[C@@H]([C@H](C)CC)C(=O)N(CCC)CC(=O)N(C)[C@H]2C/C=C\CCN(C2=O)[C@@H](Cc2ccc(C(F)F)cc2)C(=O)N(C)CC(=O)N[C@@H](CCc2cc(F)c(C(F)(F)F)c(F)c2)C(=O)N2C[C@H](OC(C)C)C[C@H]2C(=O)N(C)C2(CCC2)C(=O)N(C)[C@@H](C(CC)CC)C(=O)N(C)[C@H](C(=O)N(C)C)CC(=O)N1C [PP3492]			A (a compound having 10 or more and less than 20 is denoted as A)	A (a compound having 10 or more and less than 20 is denoted as A)
			51.5 nM	0.82 nM	CCO[C@@H]1C[C@H]2C(=O)NC3(CC(C)(C)C3)C(=O)N(C)[C@@H](C3CCCC3)C(=O)N(C)[C@H](C(=O)N(C)CC)CC(=O)N(C)[C@@H]([C@H](C)OC)C(=O)N[C@@H]([C@@H](C)CC)C(=O)N(C3CC3)CC(=O)N(C)[C@H]3C/C=C\CCN(C3=O)[C@@H](Cc3ccc(C(F)(F)F)cc3)C(=O)N(C)CC(=O)N[C@@H](CCc3ccc(C(F)(F)F)c(Cl)c3)C(=O)N2C1 [PP3221]			A (a compound having 10 or more and less than 20 is denoted as A)	A (a compound having 10 or more and less than 20 is denoted as A)
		0.18 nM	14.3 nM		CC[C@H](C)[C@@H]1NC(=O)[C@H](COC)N(C)C(=O)C[C@@H](C(=O)N(C)C)N(C)C(=O)[C@H](C2CCCCC2)N(C)C(=O)C2(CC(C)(C)C2)NC(=O)[C@@H]2C[C@@H](OC(C)C)CN2C(=O)[C@H](CCc2cc(F)c(C(F)(F)F)c(F)c2)NC(=O)CN(C)C(=O)[C@H](Cc2ccc(C)cc2)N2CC/C=C\C[C@@H](C2=O)N(C)C(=O)CN(C)C1=O [PP2660]			A (a compound having 10 or more and less than 20 is denoted as A)	A (a compound having 10 or more and less than 20 is denoted as A)
			4.6 nM	0.037 nM	CCC[C@H]1C(=O)N[C@@H](C2CCCC2)C(=O)N(C)CC(=O)N(C)[C@H]2C/C=C\CCN(C2=O)[C@@H](Cc2ccc(C)cc2)C(=O)N(C)CC(=O)N[C@@H](CCc2ccc(C(F)(F)F)c(OC)c2)C(=O)N2CC3(CC3)C[C@H]2C(=O)N(C)C2(CCC2)C(=O)N(C)[C@@H](CC(C)(C)C)C(=O)N(C)[C@H](C(=O)N(C)C)CC(=O)N1C [PP3320]			B (a compound having 3 or more and less than 10 is denoted as B)	B (a compound having 3 or more and less than 10 is denoted as B)
		1.1 nM	51 nM		CCC[C@H]1C(=O)N[C@@H]([C@@H](C)CC)C(=O)N(C2CC2)CC(=O)N(C)[C@H]2C/C=C\CCN(C2=O)[C@@H](Cc2ccc(C)cc2)C(=O)N(C)CC(=O)N[C@@H](CCc2ccc(Cl)c(Cl)c2)C(=O)N2C[C@H](OCC)C[C@H]2C(=O)NC2(CC(C)(C)C2)C(=O)N(C)[C@@H](CC(C)(C)C)C(=O)N(C)[C@H](C(=O)N(C)C)CC(=O)N1C [PP2726]			AA (a compound having 20 or more is denoted as AA)	A (a compound having 10 or more and less than 20 is denoted as A)
			29.8 nM	0.9 nM	CCCOC[C@H]1C(=O)N[C@@H](C2CCCC2)C(=O)N(CCC)CC(=O)N(C)[C@H]2C/C=C\CCN(C2=O)[C@@H](Cc2ccc(C(F)F)cc2)C(=O)N(C)CC(=O)N[C@@H](CCc2cc(F)c(C(F)(F)F)c(F)c2)C(=O)N2C[C@H](OCC)C[C@H]2C(=O)N(C)C2(CCC2)C(=O)N(C)[C@@H](C(CC)CC)C(=O)N(C)[C@H](C(=O)N(C)C)CC(=O)N1C [PP3507]			A (a compound having 10 or more and less than 20 is denoted as A)	A (a compound having 10 or more and less than 20 is denoted as A)
